The results in this text go back to patent publication US8778939B2, “Compounds” (Glaxo Group Limited, priority 2009, dated 2014).

The first experiment addresses T1, 6His-Tev-LRRK2 (1326-2527) (Homo sapiens, UniProt Q5S007).
T1 construct: A LRRK2 cDNA encoding residues 1326-2527 was received from Dundee University; made in house; host or cells: Spodoptera frugiperda (Sf9) insect cells, baculovirus
T1 sequence (Q5S007 1326-2527): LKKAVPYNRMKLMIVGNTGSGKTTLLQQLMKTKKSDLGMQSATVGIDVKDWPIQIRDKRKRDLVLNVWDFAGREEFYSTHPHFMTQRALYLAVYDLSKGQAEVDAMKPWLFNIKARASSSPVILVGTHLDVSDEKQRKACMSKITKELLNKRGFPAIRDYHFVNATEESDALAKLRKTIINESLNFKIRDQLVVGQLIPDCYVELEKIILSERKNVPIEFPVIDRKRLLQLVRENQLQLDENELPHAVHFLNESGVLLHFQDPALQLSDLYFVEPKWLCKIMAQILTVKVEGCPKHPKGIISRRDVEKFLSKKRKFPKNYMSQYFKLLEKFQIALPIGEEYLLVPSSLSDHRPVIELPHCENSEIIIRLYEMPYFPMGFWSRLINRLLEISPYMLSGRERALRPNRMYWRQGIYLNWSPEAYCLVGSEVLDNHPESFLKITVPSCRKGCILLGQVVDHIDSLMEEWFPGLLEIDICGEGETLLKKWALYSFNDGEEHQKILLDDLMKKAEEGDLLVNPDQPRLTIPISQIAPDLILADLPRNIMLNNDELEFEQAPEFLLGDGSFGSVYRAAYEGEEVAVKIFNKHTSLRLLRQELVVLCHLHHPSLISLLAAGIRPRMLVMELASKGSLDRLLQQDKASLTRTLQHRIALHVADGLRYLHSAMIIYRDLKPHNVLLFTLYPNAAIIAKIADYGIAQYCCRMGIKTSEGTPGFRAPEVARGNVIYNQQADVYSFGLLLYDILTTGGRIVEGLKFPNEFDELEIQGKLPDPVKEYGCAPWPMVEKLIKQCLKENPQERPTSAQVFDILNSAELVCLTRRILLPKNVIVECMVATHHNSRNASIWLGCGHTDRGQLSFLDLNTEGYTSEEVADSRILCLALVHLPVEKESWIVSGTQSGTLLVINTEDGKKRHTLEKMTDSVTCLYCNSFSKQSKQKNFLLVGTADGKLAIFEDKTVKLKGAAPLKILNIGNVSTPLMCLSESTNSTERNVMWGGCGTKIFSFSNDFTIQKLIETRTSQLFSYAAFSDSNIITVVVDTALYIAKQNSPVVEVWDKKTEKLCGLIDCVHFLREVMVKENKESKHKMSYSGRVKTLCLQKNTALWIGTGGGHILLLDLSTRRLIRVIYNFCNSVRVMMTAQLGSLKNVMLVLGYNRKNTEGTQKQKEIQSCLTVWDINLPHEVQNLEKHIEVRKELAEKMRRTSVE
Briefly: LRRK2 AlphaScreen desensitised protein substrate assay. The class given is biochemical. To be noted: excess of ATP present (2 mM ATP); read-out: pIC50 in the LRRK2 alphascreen desensitised protein substrate assay (converted). An outline of the steps:
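AlphaScreen readout with phospho-Ezrin/Radixin/Moesin antibody after a 20 min room-temperature reaction at 2 mM ATP (substrate solution). Enzyme: 6His-Tev-LRRK2 (1326-2527) at 80 nM in enzyme solution, Hepes pH 7.2 buffer; test compound serially diluted 1:4 from 30 μM final.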
(In general: Bead proximity is the source of the signal in Alpha formats.)
Take `CNC(=O)c1cccc(NC(=O)c2cc(Br)ccc2OCc2ccccc2)c1` [Example 27, 5-Bromo-N-{3-[(methylamino)carbonyl]phenyl}-2-[(phenylmethyl)oxy]benzamide]: the IC50 is > 25.1 µM.

For the molecule `O=C(Nc1cccnc1)c1cc(Br)ccc1OCc1cccc(Cl)c1` [Example 13, 5-Bromo-2-{[(3-chlorophenyl)methyl]oxy}-N-3-pyridinylbenzamide], the IC50 was > 25.1 µM.

For the molecule `CC(C)c1ccc(OCc2ccccc2)c(C(=O)Nc2cccnc2)c1` [Example 1, 5-(1-Methylethyl)-2-[(phenylmethyl)oxy]-N-3-pyridinylbenzamide], the IC50 is ≤ 20 µM.

Take `O=C(Nc1cccnc1)c1cc(N2CCCCC2)ccc1OCc1ccccc1` [Example 33, 2-[(Phenylmethyl)oxy]-5-(1-piperidinyl)-N-3-pyridinylbenzamide]: the IC50 is ≤ 20 µM.

In the case of `O=C(Nc1ccccn1)c1cc(Br)ccc1OCc1ccccc1` [Example 22, 5-Bromo-2-[(phenylmethyl)oxy]-N-2-pyridinylbenzamide], the IC50 was > 25.1 µM.

Turning to `O=C(Nc1cccnc1)c1cc(Br)ccc1OCc1ccccc1` [Example 2, 5-Bromo-2-[(phenylmethyl)oxy]-N-3-Pyridinylbenzamide], the IC50 is ≤ 20 µM.

Take `CN1CCN(c2ccc(OCc3ccccc3)c(C(=O)Nc3cccnc3)c2)CC1` [Example 32, 5-(4-Methyl-1-piperazinyl)-2-[(phenylmethyl)oxy]-N-3-pyridinylbenzamide]: the IC50 is ≤ 20 µM.

`CN1CCC(Oc2ccc(OCc3ccccc3)c(C(=O)Nc3cccnc3)c2)CC1` [Example 31, 5-[(1-Methyl-4-piperidinyl)oxy]-2-[(phenylmethyl)oxy]-N-3-pyridinylbenzamide]: the IC50 was ≤ 20 µM.

As for `CCc1cccc(NC(=O)c2cc(Br)ccc2OCc2ccccc2)c1` [Example 20, 5-Bromo-N-(3-ethylphenyl)-2-[(phenylmethyl)oxy]benzamide], the IC50 was > 25.1 µM.

On to `N#Cc1ccccc1COc1ccc(Br)cc1C(=O)Nc1cccnc1` [Example 23, 5-Bromo-2-{[(2-cyanophenyl)methyl]oxy}-N-3-pyridinylbenzamide], for which the IC50 is ≤ 20 µM.

Turning to `N#Cc1cccc(COc2ccc(Br)cc2C(=O)Nc2cccnc2)c1` [Example 15, 5-Bromo-2-{[(3-cyanophenyl)methyl]oxy}-N-3-pyridinylbenzamide], the IC50 is > 25.1 µM.

With `O=C(Nc1cccnc1)c1cc(O)ccc1OCc1ccccc1` [Example 29, 5-Hydroxy-2-[(phenylmethyl)oxy]-N-3-pyridinylbenzamide], the IC50 was ≤ 20 µM.

On to `O=C(Nc1cccnc1)c1cc(Br)ccc1OCc1ccc(Cl)cc1` [Example 9, 5-Bromo-2-{[(4-chlorophenyl)methyl]oxy}-N-3-pyridinylbenzamide], for which the IC50 was ≤ 20 µM.

For `CN(C)CCOc1ccc(OCc2ccccc2)c(C(=O)Nc2cccnc2)c1` [Example 30, 5-{[2-(Dimethylamino)ethyl]oxy}-2-[(phenylmethyl)oxy]-N-3-pyridinylbenzamide], the IC50 was ≤ 20 µM.

`N#Cc1ccc(OCc2ccccc2)c(C(=O)Nc2cccnc2)c1` [Example 8, 5-Cyano-2-[(phenylmethyl)oxy]-N-3-pyridinylbenzamide]: the IC50 was ≤ 20 µM.

With `COc1ccccc1COc1ccc(Br)cc1C(=O)Nc1cccnc1` [Example 21, 5-Bromo-2-({[2-(methyloxy)phenyl]methyl}oxy)-N-3-pyridinylbenzamide], the IC50 was ≤ 20 µM.

For `COc1cccc(COc2ccc(Br)cc2C(=O)Nc2cccnc2)c1` [Example 18, 5-Bromo-2-({[3-(methyloxy)phenyl]methyl}oxy)-N-3-pyridinylbenzamide], the IC50 was > 25.1 µM.

Another experiment concerns the target T1, 6His-Tev-LRRK2 (1326-2527). Briefly: LRRK2 peptide substrate assay. It counts as biochemical. To be noted: Biotin-LRRKtide peptide substrate, ATP at Km; read-out: pIC50 in the LRRK2 peptide substrate assay (converted). An outline of the steps:
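Phosphorylation of biotin-LRRKtide/moesin substrate read by time-resolved FRET (Eu anti-rabbit IgG, streptavidin-APC, phospho-ERM Thr558 antibody; 665/620 nm). The 6His-Tev-LRRK2 (1326-2527) enzyme solution was 80 nM, in 50 mM Hepes pH 7.2 with 10 mM MgCl2 and 1 mM DTT. Incubation 1-2 h at room temperature; compounds tested up to 30 μM final, 1:4 dilutions.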
For `O=C(Nc1cccnc1)c1cc(Br)ccc1OCc1cccc(Cl)c1` [Example 13, 5-Bromo-2-{[(3-chlorophenyl)methyl]oxy}-N-3-pyridinylbenzamide], the IC50 was ≤ 0.1 µM.

As for `CC(C)c1ccc(OCc2ccccc2)c(C(=O)Nc2cccnc2)c1` [Example 1, 5-(1-Methylethyl)-2-[(phenylmethyl)oxy]-N-3-pyridinylbenzamide], the IC50 is ≤ 0.1 µM.

Regarding `O=C(Nc1cccnc1)c1cc(N2CCCCC2)ccc1OCc1ccccc1` [Example 33, 2-[(Phenylmethyl)oxy]-5-(1-piperidinyl)-N-3-pyridinylbenzamide], the IC50 was ≤ 0.1 µM.

As for `O=C(Nc1cccnc1)c1cc(Br)ccc1OCc1ccccc1` [Example 2, 5-Bromo-2-[(phenylmethyl)oxy]-N-3-Pyridinylbenzamide], the IC50 was ≤ 0.1 µM.

With `CN1CCN(c2ccc(OCc3ccccc3)c(C(=O)Nc3cccnc3)c2)CC1` [Example 32, 5-(4-Methyl-1-piperazinyl)-2-[(phenylmethyl)oxy]-N-3-pyridinylbenzamide], the IC50 was ≤ 0.01 µM.

As for `CN1CCC(Oc2ccc(OCc3ccccc3)c(C(=O)Nc3cccnc3)c2)CC1` [Example 31, 5-[(1-Methyl-4-piperidinyl)oxy]-2-[(phenylmethyl)oxy]-N-3-pyridinylbenzamide], the IC50 is ≤ 0.1 µM.

Take `N#Cc1cccc(COc2ccc(Br)cc2C(=O)Nc2cccnc2)c1` [Example 15, 5-Bromo-2-{[(3-cyanophenyl)methyl]oxy}-N-3-pyridinylbenzamide]: the IC50 was ≤ 0.1 µM.

Consider `O=C(Nc1cccnc1)c1cc(O)ccc1OCc1ccccc1` [Example 29, 5-Hydroxy-2-[(phenylmethyl)oxy]-N-3-pyridinylbenzamide], for which the IC50 is ≤ 0.1 µM.

On to `O=C(Nc1cccnc1)c1cc(Br)ccc1OCc1ccc(Cl)cc1` [Example 9, 5-Bromo-2-{[(4-chlorophenyl)methyl]oxy}-N-3-pyridinylbenzamide], for which the IC50 was ≤ 0.1 µM.

On to `CN(C)CCOc1ccc(OCc2ccccc2)c(C(=O)Nc2cccnc2)c1` [Example 30, 5-{[2-(Dimethylamino)ethyl]oxy}-2-[(phenylmethyl)oxy]-N-3-pyridinylbenzamide], for which the IC50 is ≤ 0.1 µM.

As to `N#Cc1ccc(OCc2ccccc2)c(C(=O)Nc2cccnc2)c1` [Example 8, 5-Cyano-2-[(phenylmethyl)oxy]-N-3-pyridinylbenzamide], the IC50 is ≤ 0.1 µM.

The target of the next experiment is T1, 6His-Tev-LRRK2 (1326-2527). Put plainly: LRRK2 AlphaScreen protein substrate assay. It counts as biochemical. To be noted: GST-PS-Moesin (400-577) substrate, ATP at Km; read-out: pIC50 in the LRRK2 alphascreen protein substrate assay (converted). The method, then: a) 100 nl of a 1:4 serial dilution of test compound with a top final assay concentration of 30 μM is added to certain wells in a low volume 384 well black plate. 100 nl of DMSO is used in certain wells as controls.
b) 3 μl enzyme solution (80 nM purified recombinant 6His-Tev-LRRK2 (1326-2527) in assay buffer: 50 mM Hepes (pH 7.2), 10 mM MgCl2, 150 mM NaCl, 5% glycerol, 0.0025% triton X-100 and 1 mM DTT) is added to certain wells.
Plates are then incubated for a further 1-2 hours at room temperature (incubation time varies depending upon rate and linearity of reaction with differing enzyme batches).
d) 6 μl detection solution (1:250 dilution of AlphaLisa Protein A Acceptor beads (PerkinElmer), 1:64 dilution of AlphaLisa Gluthathione Donor beads (PerkinElmer) and 1:600 dilution (dilution determined on a batch to batch basis) of Phospho-Ezrin (Thr567)/Radixin (Thr564)/Moesin (Thr558) Polyclonal Antibody (New England Biolabs) in a buffer: 50 mM Hepes (pH 7.5), 250 mM NaCl, 60 mM EDTA, 1% PEG and 0.01% Brij 35) is added to each well. Plates are then incubated for a further 2 hours at room temperature in the dark before reading on an EnVision™ plate reader with AlphaScreen HTS turbo option module and AlphaScreen settings. Data is analysed using ActivityBase software (IDBS).
In the case of `CNC(=O)c1cccc(NC(=O)c2cc(Br)ccc2OCc2ccccc2)c1` [Example 27, 5-Bromo-N-{3-[(methylamino)carbonyl]phenyl}-2-[(phenylmethyl)oxy]benzamide], the IC50 was ≤ 7.94 µM.

Turning to `O=C(Nc1cccnc1)c1cc(Br)ccc1OCc1cccc(Cl)c1` [Example 13, 5-Bromo-2-{[(3-chlorophenyl)methyl]oxy}-N-3-pyridinylbenzamide], the IC50 is ≤ 0.1 µM.

Regarding `CC(C)c1ccc(OCc2ccccc2)c(C(=O)Nc2cccnc2)c1` [Example 1, 5-(1-Methylethyl)-2-[(phenylmethyl)oxy]-N-3-pyridinylbenzamide], the IC50 was ≤ 0.1 µM.

Turning to `O=C(Nc1cccnc1)c1cc(N2CCCCC2)ccc1OCc1ccccc1` [Example 33, 2-[(Phenylmethyl)oxy]-5-(1-piperidinyl)-N-3-pyridinylbenzamide], the IC50 was ≤ 0.1 µM.

In the case of `O=C(Nc1ccccn1)c1cc(Br)ccc1OCc1ccccc1` [Example 22, 5-Bromo-2-[(phenylmethyl)oxy]-N-2-pyridinylbenzamide], the IC50 is > 25.1 µM.

With `O=C(Nc1cccnc1)c1cc(Br)ccc1OCc1ccccc1` [Example 2, 5-Bromo-2-[(phenylmethyl)oxy]-N-3-Pyridinylbenzamide], the IC50 is ≤ 0.1 µM.

Regarding `CN1CCN(c2ccc(OCc3ccccc3)c(C(=O)Nc3cccnc3)c2)CC1` [Example 32, 5-(4-Methyl-1-piperazinyl)-2-[(phenylmethyl)oxy]-N-3-pyridinylbenzamide], the IC50 was ≤ 0.1 µM.

Regarding `CN1CCC(Oc2ccc(OCc3ccccc3)c(C(=O)Nc3cccnc3)c2)CC1` [Example 31, 5-[(1-Methyl-4-piperidinyl)oxy]-2-[(phenylmethyl)oxy]-N-3-pyridinylbenzamide], the IC50 was ≤ 0.1 µM.

Turning to `CCc1cccc(NC(=O)c2cc(Br)ccc2OCc2ccccc2)c1` [Example 20, 5-Bromo-N-(3-ethylphenyl)-2-[(phenylmethyl)oxy]benzamide], the IC50 was ≤ 7.94 µM.

For `N#Cc1ccccc1COc1ccc(Br)cc1C(=O)Nc1cccnc1` [Example 23, 5-Bromo-2-{[(2-cyanophenyl)methyl]oxy}-N-3-pyridinylbenzamide], the IC50 was ≤ 7.94 µM.

Consider `N#Cc1cccc(COc2ccc(Br)cc2C(=O)Nc2cccnc2)c1` [Example 15, 5-Bromo-2-{[(3-cyanophenyl)methyl]oxy}-N-3-pyridinylbenzamide], for which the IC50 was ≤ 0.1 µM.

Take `O=C(Nc1cccnc1)c1cc(O)ccc1OCc1ccccc1` [Example 29, 5-Hydroxy-2-[(phenylmethyl)oxy]-N-3-pyridinylbenzamide]: the IC50 is ≤ 0.1 µM.

Consider `O=C(Nc1cccnc1)c1cc(Br)ccc1OCc1ccc(Cl)cc1` [Example 9, 5-Bromo-2-{[(4-chlorophenyl)methyl]oxy}-N-3-pyridinylbenzamide], for which the IC50 was ≤ 0.1 µM.

As to `CN(C)CCOc1ccc(OCc2ccccc2)c(C(=O)Nc2cccnc2)c1` [Example 30, 5-{[2-(Dimethylamino)ethyl]oxy}-2-[(phenylmethyl)oxy]-N-3-pyridinylbenzamide], the IC50 is ≤ 0.1 µM.

For `N#Cc1ccc(OCc2ccccc2)c(C(=O)Nc2cccnc2)c1` [Example 8, 5-Cyano-2-[(phenylmethyl)oxy]-N-3-pyridinylbenzamide], the IC50 is ≤ 0.1 µM.

For the molecule `COc1ccccc1COc1ccc(Br)cc1C(=O)Nc1cccnc1` [Example 21, 5-Bromo-2-({[2-(methyloxy)phenyl]methyl}oxy)-N-3-pyridinylbenzamide], the IC50 is ≤ 7.94 µM.

Regarding `COc1cccc(COc2ccc(Br)cc2C(=O)Nc2cccnc2)c1` [Example 18, 5-Bromo-2-({[3-(methyloxy)phenyl]methyl}oxy)-N-3-pyridinylbenzamide], the IC50 was ≤ 7.94 µM.
